Laboratory results reported in ChEMBL document CHEMBL1795342, “Discovery of S1P agonists with a dihydronaphthalene scaffold” (Bioorg Med Chem Lett, 2011).

What was measured:
[1] = test system: Mus musculus; assay: Immunomodulatory activity in po dosed mouse assessed as reduction in peripheral lymphocyte count measured at 4 hrs; format: functional
[2] = target: Sphingosine 1-phosphate receptor 1 (Homo sapiens, UniProt P21453); assay: Agonist activity at human S1P1 receptor expressed in CHO cells assessed as intracellular calcium levels; format: functional, cell-based
Sphingosine 1-phosphate receptor 1, sequence (P21453 whole entry): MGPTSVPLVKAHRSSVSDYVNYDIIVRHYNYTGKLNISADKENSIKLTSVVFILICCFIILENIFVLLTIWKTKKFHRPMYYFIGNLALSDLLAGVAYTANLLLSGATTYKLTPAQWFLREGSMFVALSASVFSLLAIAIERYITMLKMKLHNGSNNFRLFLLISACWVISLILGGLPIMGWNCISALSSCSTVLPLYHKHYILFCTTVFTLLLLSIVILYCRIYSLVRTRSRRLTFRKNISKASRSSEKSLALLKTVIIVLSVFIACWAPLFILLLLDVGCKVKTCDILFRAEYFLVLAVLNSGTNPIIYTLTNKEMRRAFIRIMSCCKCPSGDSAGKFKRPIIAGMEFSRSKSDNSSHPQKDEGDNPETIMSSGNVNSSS

[3] = target: Sphingosine 1-phosphate receptor 3 (Homo sapiens, UniProt Q99500); assay: Agonist activity at human S1P3 receptor expressed in CHO cells assessed as intracellular calcium levels; format: functional, cell-based
Sphingosine 1-phosphate receptor 3, sequence (Q99500 whole entry): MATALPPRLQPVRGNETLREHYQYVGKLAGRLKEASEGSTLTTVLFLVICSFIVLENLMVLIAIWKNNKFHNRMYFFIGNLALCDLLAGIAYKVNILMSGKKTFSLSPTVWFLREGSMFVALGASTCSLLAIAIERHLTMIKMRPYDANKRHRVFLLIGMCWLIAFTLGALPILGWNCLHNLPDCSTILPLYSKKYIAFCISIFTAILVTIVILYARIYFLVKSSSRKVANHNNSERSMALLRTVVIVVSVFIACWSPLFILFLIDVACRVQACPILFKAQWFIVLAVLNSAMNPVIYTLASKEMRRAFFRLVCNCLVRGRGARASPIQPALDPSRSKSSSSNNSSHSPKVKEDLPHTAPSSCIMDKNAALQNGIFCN

[4] = Total clearance in rat at 1 mg/kg, iv; format: ADME, organism-based; set-up: dose 1 mg/kg, route intravenous; conditions: in vivo
[5] = AUC (infinity) in rat at 1 mg/kg, iv; format: ADME, organism-based; set-up: time infinity, dose 1 mg/kg, route intravenous; conditions: plasma
[6] = Bioavailability in rat at 1 mg/kg, iv; format: ADME, organism-based; conditions: in vivo
[7] = Cmax in rat at 1 mg/kg, po; format: ADME, organism-based; set-up: dose 1 mg/kg, route oral; conditions: in vivo
[8] = AUC (infinity) in rat at 1 mg/kg, po; format: ADME, organism-based; set-up: time infinity, dose 1 mg/kg, route oral; conditions: plasma
[9] = Half life in rat at 1 mg/kg, po; format: ADME, organism-based; set-up: dose 1 mg/kg, route oral; conditions: in vivo
[10] = Volume of distribution at steady state in rat at 1 mg/kg, iv; format: ADME, organism-based; set-up: dose 1 mg/kg, route intravenous; conditions: in vivo, read-out: Vdss
[11] = Half life in rat at 1 mg/kg, iv; format: ADME, organism-based; set-up: dose 1 mg/kg, route intravenous; conditions: in vivo

SMILES	EC50 [2]	EC50 [3]	other results
O=C(O)CCNC/C=C/c1ccc(OCCCc2ccccc2)cc1	–	–	ED50 [1]: 4.6 mg/kg
O=C(O)CCNC/C=C/c1ccc(OCCCCc2ccccc2)cc1	120 nM	> 10000 nM	–
O=C(O)CCNC/C=C/c1ccc(OCCCCCc2ccccc2)cc1	150 nM	6700 nM	–
Cc1cc(/C=C/CNCCC(=O)O)ccc1OCCCCc1ccccc1	280 nM	> 10000 nM	–
O=C(O)CCNC/C=C/c1ccc(OCCCCc2ccccc2)cc1Cl	24 nM	7200 nM	–
COc1cc(OCCCCc2ccccc2)ccc1/C=C/CNCCC(=O)O	230 nM	> 10000 nM	–
Cc1cc(OCCCCc2ccccc2)ccc1/C=C/CNCCC(=O)O	36 nM	> 10000 nM	–
O=C(O)C1CN(C/C=C/c2ccc(OCCCc3ccccc3)cc2)C1	43 nM	3300 nM	–
O=C(O)C1CCN(C/C=C/c2ccc(OCCCc3ccccc3)cc2)CC1	2400 nM	> 10000 nM	–
C/C(=C\c1ccc(OCCCCc2ccccc2)cc1)CNCCC(=O)O	10 nM	3000 nM	–
O=C(O)CCNCC1=Cc2ccc(OCCCCc3ccccc3)cc2CC1	57 nM	7800 nM	–
CC1=C(CNCCC(=O)O)CCc2cc(OCCCCc3ccccc3)ccc21	11 nM	> 10000 nM	clearance [4]: 3.1 mL/min/kg; ED50 [1]: 0.34 mg/kg; AUC(0-inf) [5]: 5400 ng·h/mL; bioavailability [6]: 44%; Cmax [7]: 168 ng/mL; AUC(0-inf) [8]: 2400 ng·h/mL; half-life [9]: 6.9 h; Vd [10]: 0.86 L/kg; half-life [11]: 5.2 h
CC1=C(CN2CC(C(=O)O)C2)CCc2cc(OCCCCc3ccccc3)ccc21	2.9 nM	> 10000 nM	clearance [4]: 4 mL/min/kg; ED50 [1]: 0.16 mg/kg; AUC(0-inf) [5]: 4400 ng·h/mL; bioavailability [6]: 85%; Cmax [7]: 181 ng/mL; AUC(0-inf) [8]: 3800 ng·h/mL; half-life [9]: 16.7 h; Vd [10]: 2.86 L/kg; half-life [11]: 11 h
CC1=C(CN2CC(C(=O)O)C2)CCCc2cc(OCCCCc3ccccc3)ccc21	1300 nM	> 10000 nM	–
